Laboratory results reported in US6949574B2 (Bristol-Myers Squibb Company, priority 2002, dated 2005).

Target: T1, human FAAH (Homo sapiens, UniProt O00519)
T1 construct: expressed in transfected cells; host or cells: H4 cells (H4-FAAH, Geneticin-selected); crude membrane homogenates
T1 sequence (O00519 1-579): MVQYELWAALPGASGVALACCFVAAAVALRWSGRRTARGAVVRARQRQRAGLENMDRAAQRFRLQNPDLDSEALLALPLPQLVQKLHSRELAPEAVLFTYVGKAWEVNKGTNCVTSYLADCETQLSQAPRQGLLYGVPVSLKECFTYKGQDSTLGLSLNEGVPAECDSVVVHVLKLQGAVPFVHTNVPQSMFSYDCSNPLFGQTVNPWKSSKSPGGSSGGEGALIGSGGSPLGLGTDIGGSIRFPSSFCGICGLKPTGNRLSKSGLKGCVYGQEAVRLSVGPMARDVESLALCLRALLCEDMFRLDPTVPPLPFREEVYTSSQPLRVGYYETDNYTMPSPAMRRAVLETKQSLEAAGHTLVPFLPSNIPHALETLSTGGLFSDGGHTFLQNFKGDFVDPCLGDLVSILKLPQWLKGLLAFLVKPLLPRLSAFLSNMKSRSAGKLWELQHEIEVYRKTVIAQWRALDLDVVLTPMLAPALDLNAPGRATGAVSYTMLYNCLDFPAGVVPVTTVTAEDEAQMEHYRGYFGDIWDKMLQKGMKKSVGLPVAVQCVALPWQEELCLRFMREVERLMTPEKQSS
Test: FAAH activity in membrane homogenates of H4-FAAH cells, [3H]-anandamide hydrolysis
Format: biochemical
Conditions: not given
How it was run: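 Membranes (240 ng protein) from H4 cells expressing transfected human FAAH, incubated 1 h at room temperature in 125 mM Tris-Cl, pH 9.0, with 1.67 nM [3H]-anandamide plus 10 μM anandamide. Aqueous [3H]-ethanolamine counted after methanol/dichloroethane extraction; background set with 10 μM ATFMK. IC50 from four-parameter logistic fit.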

Work on `CCCCCOc1ccc(NC(=O)O/N=C/c2ccc(F)cc2)cc1` [Example 14, 4-Fluorobenzaldehyde, O-[[(4-pentyloxyphenyl)amino]carbonyl]oxime] yielded an IC50 of less than 10 nM.

Same assay, conditions: H4-FAAH cell membranes, 10 μM anandamide, room temperature, one hour; read-out: IC50

First: O=C(Nc1ccccc1Oc1ccccc1)O/N=C/c1ccc(F)cc1 [Example 89, 4-Fluorobenzaldehyde, O-[[(2-phenoxyphenyl)amino]carbonyl]oxime]
Second: O=C(Nc1ccccc1Oc1ccccc1)O/N=C/c1ccccc1 [Example 90, Benzaldehyde, O-[[(2-phenoxyphenyl)amino]carbonyl]oxime]
The IC50 of the first is higher: greater than 500 nM for the first, 10 to 100 nM for the second.

`CCCCOc1ccc(C(CC)NC(=O)Oc2ccc3ncccc3c2)cc1` (stereo not drawn) [Example 125, [1-(4-Butoxy-phenyl)-propyl]-carbamic acid quinolin-6-yl ester] and `CCCCOc1ccc(C(CC)NC(=O)Oc2cccc(C(F)(F)F)c2)cc1` (stereo not drawn) [Example 130, [1-(4-Butoxy-phenyl)-propyl]-carbamic acid 3-trifluoromethyl-phenyl ester] fall in the same range of IC50: 10 to 100 nM for the first, 10 to 100 nM for the second.

Compared with `CCCCCCOc1ccc(NC(=O)O/N=C/c2ccccc2)cc1` [Example 23, Benzaldehyde, O-[[(4-hexyloxyphenyl)amino]carbonyl]oxime], `CCOc1ccc(NC(=O)O/N=C/c2ccccc2)cc1` [Example 9, Benzaldehyde, O-[[(4-ethoxyphenyl)amino]carbonyl]oxime] is higher in IC50: less than 10 nM for the first, 10 to 100 nM for the second.

`O=C(Nc1ccc(OCCCc2ccccc2)cc1)O/N=C/c1ccccc1` [Example 86, Benzaldehyde, O-[[[4-(3-phenylpropoxy)phenyl]amino]carbonyl]oxime] and `O=C(Nc1ccc(OCCCc2ccccc2)cc1)O/N=C/c1cccnc1` [Example 80, 3-Pyridinecarboxaldehyde, O-[[[4-(3-phenylpropoxy)phenyl]amino]carbonyl]oxime] cannot be ordered by IC50: less than 10 nM for the first, less than 10 nM for the second.

`CCCCCCCCCOc1ccc(NC(=O)O/N=C/c2cccc(F)c2)cc1` [Example 52, 3-Fluorobenzaldehyde, O-[[(4-nonyloxyphenyl)amino]carbonyl]oxime] and `CCCCCCCCCOc1ccc(NC(=O)O/N=C/c2c(F)cccc2F)cc1` [Example 50, 2,6-Difluorobenzaldehyde, O-[[(4-nonyloxyphenyl)amino]carbonyl]oxime] cannot be ordered by IC50: less than 10 nM for the first, less than 10 nM for the second.

`CCCCOc1ccc(NC(=O)O/N=C/c2ccccc2)cc1OC` [Example 19, Benzaldehyde, O-[[(4-butoxy-3-methoxyphenyl)amino]carbonyl]oxime] and `CCCCOc1ccc(NC(=O)O/N=C/c2ccc(F)cc2)cc1OC` [Example 20, 4-Fluorobenzaldehyde, O-[[(4-butoxy-3-methoxyphenyl)amino]carbonyl]oxime] fall in the same range of IC50: 101 to 500 nM for the first, 101 to 500 nM for the second.

`CCCCOc1cccc(NC(=O)O/N=C/c2ccccc2)c1` [Example 67, Benzaldehyde, O-[[(3-butoxyphenyl)amino]carbonyl]oxime] and `CCCCOc1cccc(NC(=O)O/N=C/c2ccc(F)cc2)c1` [Example 68, 4-Fluorobenzaldehyde, O-[[(3-butoxyphenyl)amino]carbonyl]oxime] fall in the same range of IC50: 10 to 100 nM for the first, 10 to 100 nM for the second.

First: CCCOc1ccc(NC(=O)O/N=C/c2cccnc2)cc1 [Example 16, 3-Pyridinecarboxaldehyde, O-[[(4-propoxyphenyl)amino]carbonyl]oxime]
Second: CCOc1ccc(NC(=O)O/N=C/c2cccnc2)cc1 [Example 15, 3-Pyridinecarboxaldehyde, O-[[(4-ethoxyphenyl)amino]carbonyl]oxime]
The IC50 of the first is lower: 10 to 100 nM for the first, 101 to 500 nM for the second.

First: CCCOc1ccc(NC(=O)ON=C(C)C)cc1 [Example 7, 2-Propanone, O-[[(4-propoxyphenyl)amino]carbonyl]oxime]
Second: CCCCCCCCCCOc1ccc(NC(=O)ON=C(C)C)cc1 [Example 32, 2-Propanone, O-[[(4-decyloxyphenyl)amino]carbonyl]oxime]
The IC50 of the first is higher: 101 to 500 nM for the first, less than 10 nM for the second.

`CCc1ccc(-c2ccc(NC(=O)O/N=C/c3ccc(F)cc3)cc2)cc1` [Example 75, 4-Fluorobenzaldehyde, O-[[(4′-ethyl-[1,1′-biphenyl]-4-yl)amino]carbonyl]oxime] and `CCc1ccc(-c2ccc(NC(=O)O/N=C/c3ccccc3)cc2)cc1` [Example 74, Benzaldehyde, O-[[(4′-ethyl-[1,1′-biphenyl]-4-yl)amino]carbonyl]oxime] cannot be ordered by IC50: less than 10 nM for the first, less than 10 nM for the second.

`O=C(Nc1ccc(Oc2ccccc2)cc1)O/N=C/c1ccc(F)cc1` [Example 77, 4-Fluorobenzaldehyde, O-[[(4-phenoxyphenyl)amino]carbonyl]oxime] and `O=C(Nc1ccc(Oc2ccccc2)cc1)O/N=C/c1ccccc1` [Example 76, Benzaldehyde, O-[[(4-phenoxyphenyl)amino]carbonyl]oxime] cannot be ordered by IC50: less than 10 nM for the first, less than 10 nM for the second.

`CCCCCCCCCOc1ccc(NC(=O)O/N=C/c2cc(C(F)(F)F)ccc2F)cc1` [Example 57, 2-Fluoro-5-(trifluoromethyl)benzaldehyde, O-[[(4-nonyloxyphenyl)amino]carbonyl]oxime] and `CCCCCCCCCOc1ccc(NC(=O)O/N=C/c2cccc(F)c2F)cc1` [Example 55, 2,3-Difluorobenzaldehyde, O-[[(4-nonyloxyphenyl)amino]carbonyl]oxime] cannot be ordered by IC50: less than 10 nM for the first, less than 10 nM for the second.

`CCCCCCCCC(=O)Nc1ccc(NC(=O)O/N=C/c2ccccc2)cc1` [Example 136, Benzaldehyde, O-[[(4-Nonanoylamino-phenyl)amino]carbonyl]oxime] and `CCCCCCCCC(=O)Nc1ccc(NC(=O)O/N=C/c2ccc(F)c(F)c2)cc1` [Example 140, 3,4-Difluorobenzaldehyde, O-[[(4-Nonanoylamino-phenyl)amino]carbonyl]oxime] fall in the same range of IC50: 10 to 100 nM for the first, 10 to 100 nM for the second.

`CCCCCCCCOc1ccc(NC(=O)O/N=C/c2cccnc2)cc1` [Example 30, 3-Pyridinecarboxaldehyde, O-[[(4-octyloxyphenyl)amino]carbonyl]oxime] and `CCCCCOc1ccc(NC(=O)O/N=C/c2cccnc2)cc1` [Example 17, 3-Pyridinecarboxaldehyde, O-[[(4-pentyloxyphenyl)amino]carbonyl]oxime] cannot be ordered by IC50: less than 10 nM for the first, less than 10 nM for the second.

First: CCCCOc1ccc(CNC(=O)O/N=C/c2ccc(F)cc2)cc1 [Example 63, 4-Fluorobenzaldehyde, O-[[(4-butoxyphenylmethyl)amino]carbonyl]oxime]
Second: O=C(Nc1ccc(OCCCc2ccccc2)cc1)O/N=C/c1ccc(F)cc1 [Example 83, 4-Fluorobenzaldehyde, O-[[[4-(3-phenylpropoxy)phenyl]amino]carbonyl]oxime]
The IC50 of the first is higher: 10 to 100 nM for the first, less than 10 nM for the second. The second is the more potent here.

Compared with `O=C(Nc1ccc(OCCCN2CCOCC2)cc1)O/N=C/c1ccc(F)cc1` [Example 58, 4-Fluorobenzaldehyde, O-[[4-[3-(4-morpholinyl)propoxyphenyl]amino]carbonyl]oxime], `O=C(Nc1ccc2oc3ccccc3c2c1)O/N=C/c1ccc(F)cc1` [Example 153, 4-Fluorobenzaldehyde, O-[[(2-dibenzofuranyl)amino]carbonyl]oxime] is lower in IC50: greater than 500 nM for the first, 10 to 100 nM for the second.

Going from `CCCCCCOc1ccc(NC(=O)Oc2ccccc2F)cc1` [Example 94, 4-Hexyloxyphenylcarbamic acid, 2-fluorophenyl ester] to `CCCCOc1ccc(CNC(=O)Oc2cccnc2)cc1` [Example 2, (4-Butoxyphenyl)methylcarbamic acid, 3-pyridinyl ester], the IC50 falls from greater than 500 nM to less than 10 nM. The second is the more potent here.

Tested on: not given
Test: not given
Conditions: not given

`O=C(Nc1ccccc1Oc1ccccc1)O/N=C/c1ccc(F)cc1` [Example 89, 4-Fluorobenzaldehyde, O-[[(2-phenoxyphenyl)amino]carbonyl]oxime] and `O=C(Nc1ccccc1Oc1ccccc1)O/N=C/c1ccccc1` [Example 90, Benzaldehyde, O-[[(2-phenoxyphenyl)amino]carbonyl]oxime] fall in the same range of melting point: 141.5 to 142 °C for the first, 141.5 to 142 °C for the second.

`CCCCOc1ccc(C(CC)NC(=O)Oc2ccc3ncccc3c2)cc1` (stereo not drawn) [Example 125, [1-(4-Butoxy-phenyl)-propyl]-carbamic acid quinolin-6-yl ester] showed a melting point of 115 to 118 °C.

Tested on: carrageenan-induced edema
Test: Paw edema model (inflammation-induced edema), plethysmometry
Format: in vivo, rat
Conditions: 1 mg/kg ip
Source text: PAW EDEMA MODEL (Inflammation-induced Edema) The effects of Example 5 on carrageenan-induced edema were examined in a quantitative manner (plethysmometry).

In the case of `C[C@@H]1C[C@H]2[C@@H]3CCC4=CC(=O)C=C[C@]4(C)[C@@]3(F)[C@@H](O)C[C@]2(C)[C@@]1(O)C(=O)CO` [dexamethasone, reference compound], the “inhibition of swelling (combined total paw volume)” value is reported as 70%.
